Data taken from US20250230138A1, “COMPOUNDS HAVING A T-STRUCTURE FORMED BY AT LEAST FOUR CYCLES FOR USE IN THE TREATMENT OF CANCER AND OTHER INDICATIONS” (TheRas, Inc., priority 2022, published 2025).
Like-named read-outs stand apart in the source and are kept apart here.

Key:
[1] = biological target: Cys242 in human PIK3CA (157-299) (Homo sapiens (Human), UniProt P42336); assay: Covalent modification assay using MALDI-TOF MS; format: biochemical; details: 4 h reaction time point
How it was run: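 PIK3CA (157-299) at 3.33 μM or 1 μM in 20 mM HEPES, 150 mM NaCl, 2 mM MgCl2, pH 7.3 was incubated with compound (from 10 mM DMSO stocks) in the dark at room temperature for 15 min, 30 min, 2 h or 4 h. Linear-mode MALDI-TOF peak heights gave percent modification.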

pAKT in BT474 cells = assay: Cell-based pAKT HTRF assay in BT474 cells; details: BT474 cells, 4 hr incubation, read-out: pAKT inhibition IC50 in BT474 cells
How it was run: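 The HTRF signal (excitation 320 nm, emission 615 nm) came from d2/Eu Cryptate antibodies added to lysates and incubated 4–24 h at room temperature. Those lysates were taken from cells treated for 4 hr with compound, top concentration 3 μM, in 0.25% DMSO.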

[2] = 3.33 μM protein target, 1:7.5 protein to compound ratio (compounds 1-852)
[3] = Homo sapiens, BT-474, Compounds 10-999
[4] = 1 μM protein target, 1:5 protein to compound ratio (compounds 853-1279)

Chain of Cys242 in human PIK3CA (157-299) (P42336 157-299): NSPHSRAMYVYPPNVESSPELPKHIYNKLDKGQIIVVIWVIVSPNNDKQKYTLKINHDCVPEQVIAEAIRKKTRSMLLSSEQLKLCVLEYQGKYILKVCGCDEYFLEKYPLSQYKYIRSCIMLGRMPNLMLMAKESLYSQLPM

In the case of `C=CC(=O)N1Cc2cc(-c3nc(-c4cnc5c(c4)CN(C)C5=O)c4ccsc4c3-c3c(F)cc(F)cc3OCCOC)nn2[C@@H](C)C1` [Compound 506], the “% of modification” value [1, 2] is reported as “A (percent of modification of PIK3CA protein ≥75%)” and the IC50 (pAKT in BT474 cells; Compounds 10-999) is reported as < 100 nM.
With `C=CC(=O)N1Cc2cc(-c3nc(-c4cnn(CC(C)(C)O)c4)c4ccsc4c3-c3c(F)cc(F)cc3OCCOC)nn2[C@@H](C)C1` [Compound 491] the “% of modification” value [1, 2] was “A (percent of modification of PIK3CA protein ≥75%)” and the IC50 (pAKT in BT474 cells; Compounds 10-999) was < 100 nM.
For `C=CC(=O)N1CCn2nc(-c3nc(-c4cnn(C)c4)ccc3-c3ccc(F)cc3OC(C)C)cc2C1` [Compound 279, 1-[2-[3-(4-fluoro-2-isopropoxy-phenyl)-6-(1-methylpyrazol-4-yl)-2-pyridyl]-6,7-dihydro-4H-pyrazolo[1,5-a]pyrazin-5-yl]prop-2-en-1-one], the “% of modification” value [1, 2] was “A (percent of modification of PIK3CA protein ≥75%)” and the IC50 (pAKT in BT474 cells; [3]) was 100 to 1000 nM.
`C=CC(=O)N1CCn2nc(-c3nc(-c4ccc5nn(C)cc5c4)c4ccsc4c3-c3c(F)cc(F)cc3OCC(C)(C)O)cc2[C@H]1C` [Compound 1129] was tested, and the “% of modification” value [1, 4] was “A (percent of modification of PIK3CA protein ≥75%)” and the IC50 (pAKT in BT474 cells; Compounds 1000-1279) was < 100 nM.
In the case of `C=CC(=O)N1CCc2nc(-c3nc(-c4ccc5c(c4)CCNC5)c4ccsc4c3-c3ccc(F)cc3OCC3CC3)sc2C1` [Compound 161], the “% of modification” value [1, 2] is reported as “A (percent of modification of PIK3CA protein ≥75%)” and the IC50 (pAKT in BT474 cells; Compounds 10-999) is reported as < 100 nM.
In the case of `C=CC(=O)N1CCc2ccc(-c3nc(-c4ccc5c(c4)C(=O)NC5)c4ccsc4c3-c3c(F)cc(F)cc3OCCOC)cc2C1` [Compound 1067], the “% of modification” value [1, 4] is reported as “D (percent of modification <25%)” and the IC50 (pAKT in BT474 cells; Compounds 1000-1279) is reported as > 1000 nM.
For `C=CC(=O)N1CCn2nc(-c3nc(-c4ccc(CC(=O)N(C)C)cc4)c4ccsc4c3-c3c(F)cc(F)cc3OC)cc2[C@H]1C` (single isomer, unassigned) [Compound 1146], the “% of modification” value [1, 4] was “A (percent of modification of PIK3CA protein ≥75%)” and the IC50 (pAKT in BT474 cells; Compounds 1000-1279) was < 100 nM.
`C=CC(=O)N1CCn2nc(-c3nc(-c4cnc5c(c4)CN(C)CC5)c4ccsc4c3-c3ccc(F)cc3OC)cc2C1` [Compound 288] was tested, and the “% of modification” value [1, 2] was “A (percent of modification of PIK3CA protein ≥75%)” and the IC50 (pAKT in BT474 cells; Compounds 10-999) was < 100 nM.
For `C=CC(=O)N1CCn2nc(-c3nc(-c4ccc5c(c4)CCN(C(C)C)C5)c4ccsc4c3-c3ccc(F)cc3OCCOC)cc2C1` [Compound 190, 1-[2-[7-[4-fluoro-2-(2-methoxyethoxy)phenyl]-4-(2-isopropyl-3,4-dihydro-1H-isoquinolin-6-yl)thieno[3,2-c]pyridin-6-yl]-6,7-dihydro-4H-pyrazolo[1,5-a]pyrazin-5-yl]prop-2-en-1-one], the “% of modification” value [1, 2] was “A (percent of modification of PIK3CA protein ≥75%)” and the IC50 (pAKT in BT474 cells; [3]) was < 100 nM.
For `C=CC(=O)N1CCn2nc(-c3nc(-c4ccc5c(=O)n(C)ncc5c4)c4ccsc4c3-c3c(F)cc(F)cc3OCCO)cc2[C@H]1C` [Compound 889], the “% of modification” value [1, 4] was “A (percent of modification of PIK3CA protein ≥75%)” and the IC50 (pAKT in BT474 cells; Compounds 10-999) was < 100 nM.
In the case of `C=C(F)C(=O)N1CCn2nc(-c3nc(-c4ccc5c(c4)CCN(C)C5)c4ccsc4c3-c3ccc(F)cc3OC(C)C)cc2C1` [Compound 293], the “% of modification” value [1, 2] is reported as “A (percent of modification of PIK3CA protein ≥75%)” and the IC50 (pAKT in BT474 cells; Compounds 10-999) is reported as < 100 nM.
For `C=CC(=O)N1CCn2nc(-c3nc(-c4ccc(=O)n(C)c4)c4ccsc4c3-c3ccc(F)cc3OCCOC)cc2C1` [Compound 195, 5-[7-[4-fluoro-2-(2-methoxyethoxy)phenyl]-6-(5-prop-2-enoyl-6,7-dihydro-4H-pyrazolo[1,5-a]pyrazin-2-yl)thieno[3,2-c]pyridin-4-yl]-1-methyl-pyridin-2-one], the “% of modification” value [1, 2] was “A (percent of modification of PIK3CA protein ≥75%)” and the IC50 (pAKT in BT474 cells; [3]) was < 100 nM.
`C=CC(=O)N1CCn2nc(-c3nc(-c4ccc(OCCN(C)C)cc4)c4ccsc4c3-c3c(F)cc(F)cc3OCCOC)cc2C1C` (stereo not drawn) [Compound 993] was tested, and the “% of modification” value [1, 4] was “A (percent of modification of PIK3CA protein ≥75%)” and the IC50 (pAKT in BT474 cells; Compounds 10-999) was < 100 nM.
For `C=CC(=O)N1CCn2nc(-c3nc(-c4ccc5c(c4)CCN(C(C)C)C5)c4ccsc4c3-c3ccc(F)cc3OC)cc2C1` [Compound 263], the “% of modification” value [1, 2] was “A (percent of modification of PIK3CA protein ≥75%)” and the IC50 (pAKT in BT474 cells; Compounds 10-999) was < 100 nM.
For `C=CC(=O)N1Cc2cc(-c3nc(C45CC(CNC(C)=O)(C4)C5)c4ccsc4c3-c3c(F)cc(F)cc3OCCOC)nn2CC1C` (stereo not drawn) [Compound 1246], the “% of modification” value [1, 4] was “B (50%<percent of modification <75%)” and the IC50 (pAKT in BT474 cells; Compounds 1000-1279) was 100 to 1000 nM.
`C=CC(=O)N1CCn2nc(-c3nc(-c4cnc5c(c4)CNC(=O)C5)c4ccsc4c3-c3c(F)cc(F)cc3OCCOC)cc2[C@H]1C` [Compound 750] was tested, and the “% of modification” value [1, 2] was “A (percent of modification of PIK3CA protein ≥75%)” and the IC50 (pAKT in BT474 cells; Compounds 10-999) was < 100 nM.
For `C=CC(=O)N1CC(n2cc(-c3nc(-c4ccc5c(c4)CCNC5)c4ccsc4c3-c3ccc(F)cc3OC(F)F)cn2)C1` [Compound 136], the “% of modification” value [1, 2] was “A (percent of modification of PIK3CA protein ≥75%)” and the IC50 (pAKT in BT474 cells; Compounds 10-999) was 100 to 1000 nM.
For `C=CC(=O)N1CCn2nc(-c3nc(-c4ccc(=O)n(C(C)C)c4)c4ccsc4c3-c3c(F)cc(F)cc3OCCOC)cc2C1C` (stereo not drawn) [Compound 987], the “% of modification” value [1, 4] was “A (percent of modification of PIK3CA protein ≥75%)” and the IC50 (pAKT in BT474 cells; Compounds 10-999) was < 100 nM.
For `C=CC(=O)N1CCn2nc(-c3nc(-c4ccc(N(C)C)nc4)c4ccsc4c3-c3c(F)cc(F)cc3OCCOC)cc2C1C` (stereo not drawn) [Compound 982], the “% of modification” value [1, 4] was “A (percent of modification of PIK3CA protein ≥75%)” and the IC50 (pAKT in BT474 cells; Compounds 10-999) was < 100 nM.
In the case of `C=CC(=O)N1CCn2nc(-c3nc(-c4ccc5c(c4)CCNC5)c4ccsc4c3-c3ccc(F)cc3OCCOC)cc2C1` [Compound 115, 1-[2-[7-[4-fluoro-2-(2-methoxyethoxy)phenyl]-4-(1,2,3,4-tetrahydroisoquinolin-6-yl)thieno[3,2-c]pyridin-6-yl]-6,7-dihydro-4H-pyrazolo[1,5-a]pyrazin-5-yl]prop-2-en-1-one], the “% of modification” value [1, 2] is reported as “A (percent of modification of PIK3CA protein ≥75%)” and the IC50 (pAKT in BT474 cells; [3]) is reported as < 100 nM.
`C=CC(=O)N1CCc2ncc(-c3nc(-c4ccc5ncn(C)c5c4)c4ccsc4c3-c3c(F)cc(F)cc3OCCOC)cc2C1` [Compound 403] was tested, and the “% of modification” value [1, 2] was “A (percent of modification of PIK3CA protein ≥75%)” and the IC50 (pAKT in BT474 cells; Compounds 10-999) was < 100 nM.
For `C=CC(=O)N1CCc2nc(-c3nc(-c4ccc5c(c4)CCN(C)C5)c4ccsc4c3-c3c(F)cc(F)cc3OCC(F)F)sc2C1` [Compound 470], the “% of modification” value [1, 2] was “A (percent of modification of PIK3CA protein ≥75%)” and the IC50 (pAKT in BT474 cells; Compounds 10-999) was 100 to 1000 nM.
For `C=CC(=O)N1CCc2ncc(-c3nc(-c4cnc5c(c4)CNC(=O)C5)c4ccsc4c3-c3ccc(F)cc3OCCOC)cc2C1` [Compound 117], the “% of modification” value [1, 2] was “A (percent of modification of PIK3CA protein ≥75%)” and the IC50 (pAKT in BT474 cells; Compounds 10-999) was < 100 nM.
In the case of `C=CC(=O)N1Cc2cc(-c3nc(-c4cnn(C(F)F)c4)c4ccsc4c3-c3c(F)cc(F)cc3OCCOC)nn2CC1C` (stereo not drawn) [Compound 772], the “% of modification” value [1, 2] is reported as “A (percent of modification of PIK3CA protein ≥75%)” and the IC50 (pAKT in BT474 cells; Compounds 10-999) is reported as < 100 nM.
In the case of `C=CC(=O)N1Cc2cc(-c3nc(-c4ccc5nn(C)cc5c4)c4ccsc4c3-c3c(F)cc(F)cc3OC(C)C)nn2CC1C` (stereo not drawn) [Compound 530], the “% of modification” value [1, 2] is reported as “A (percent of modification of PIK3CA protein ≥75%)” and the IC50 (pAKT in BT474 cells; Compounds 10-999) is reported as < 100 nM.
`C=CC(=O)N1CCn2nc(-c3nc(-c4ccc5c(c4)CNC5=O)c4ccsc4c3-c3ccc(F)cc3OC(C)C)cc2C1` [Compound 287] was tested, and the “% of modification” value [1, 2] was “A (percent of modification of PIK3CA protein ≥75%)” and the IC50 (pAKT in BT474 cells; Compounds 10-999) was < 100 nM.
In the case of `C=CC(=O)N1CCn2nc(-c3nc(-c4cnc5c(c4)CN(CCOC)CC5(F)F)c4ccsc4c3-c3c(F)cc(F)cc3OCCOC)cc2C1C` (stereo not drawn) [Compound 1242], the “% of modification” value [1, 4] is reported as “A (percent of modification of PIK3CA protein ≥75%)” and the IC50 (pAKT in BT474 cells; Compounds 1000-1279) is reported as < 100 nM.
